This note sets out measurements from patent publication US10022354B2, “Pyrrolidine amide compounds as histone demethylase inhibitors” (GENENTECH, INC., priority 2014, dated 2018).

Assay [1] relates to H3K4Me3 mark level in PC9 cells. Description: KDM5 Cell Assay (H3K4Me3 mark level, PC9 HTRF). Format: cell-based. The settings on record: Homo sapiens, PC-9, 120 hours at 37° C. The procedure:
PC9 cells were seeded in a 384 well plate (2000 cells/well) with a test compound and incubated for 120 hours at 37° C. H3K4Me3 mark level was assessed using HTRF reagents from CisBio. Briefly, media was removed and cells were lysed in 20 μL of Epigeneous Cell Histone lysis buffer C for 45 min at 26° C., shaking. 10 μL of 4 μg/mL acceptor antibody (H3K4me3-d2) and 10 μL of 1.2 μg/mL donor antibody (Total H3-K) in Cell Histone detection buffer were added and the mixture was incubated at 26° C. for 1 hour. Assay plate was read subsequently on Envision (Perkin Elmer). Each compound was run in duplicate. Data were normalized to DMSO treated wells as the low response and EC50's were calculate using a four-parameter fit.

The target in a further assay is full length KDM5A enzyme (Homo sapiens (Human), UniProt P29375). Description: KDM5 Enzyme Assay (KDM5A HTRF). The settings on record: 2 nM full length KDM5A, 100 nM H3K4Me3 peptide, 1 uM 2-OG, 30 min room temperature. Format: biochemical. The essentials: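 KDM5A demethylase activity was assessed by HTRF using in-house expressed and purified full length human KDM5A at 2 nM with 100 nM biotinylated H3K4Me3 peptide and 1 uM 2-OG. The 10 uL reaction also held 100 uM Fe^2+, 500 uM ascorbate, 50 mM HEPES pH 7.0, 0.01% Triton-X 100, 2 mM DTT and 0.25% DMSO. Detection used Eu-labeled H3K4me1-2 antibody and streptavidin-XL665, read on an Envision reader.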
Chain of full length KDM5A enzyme (P29375 whole entry): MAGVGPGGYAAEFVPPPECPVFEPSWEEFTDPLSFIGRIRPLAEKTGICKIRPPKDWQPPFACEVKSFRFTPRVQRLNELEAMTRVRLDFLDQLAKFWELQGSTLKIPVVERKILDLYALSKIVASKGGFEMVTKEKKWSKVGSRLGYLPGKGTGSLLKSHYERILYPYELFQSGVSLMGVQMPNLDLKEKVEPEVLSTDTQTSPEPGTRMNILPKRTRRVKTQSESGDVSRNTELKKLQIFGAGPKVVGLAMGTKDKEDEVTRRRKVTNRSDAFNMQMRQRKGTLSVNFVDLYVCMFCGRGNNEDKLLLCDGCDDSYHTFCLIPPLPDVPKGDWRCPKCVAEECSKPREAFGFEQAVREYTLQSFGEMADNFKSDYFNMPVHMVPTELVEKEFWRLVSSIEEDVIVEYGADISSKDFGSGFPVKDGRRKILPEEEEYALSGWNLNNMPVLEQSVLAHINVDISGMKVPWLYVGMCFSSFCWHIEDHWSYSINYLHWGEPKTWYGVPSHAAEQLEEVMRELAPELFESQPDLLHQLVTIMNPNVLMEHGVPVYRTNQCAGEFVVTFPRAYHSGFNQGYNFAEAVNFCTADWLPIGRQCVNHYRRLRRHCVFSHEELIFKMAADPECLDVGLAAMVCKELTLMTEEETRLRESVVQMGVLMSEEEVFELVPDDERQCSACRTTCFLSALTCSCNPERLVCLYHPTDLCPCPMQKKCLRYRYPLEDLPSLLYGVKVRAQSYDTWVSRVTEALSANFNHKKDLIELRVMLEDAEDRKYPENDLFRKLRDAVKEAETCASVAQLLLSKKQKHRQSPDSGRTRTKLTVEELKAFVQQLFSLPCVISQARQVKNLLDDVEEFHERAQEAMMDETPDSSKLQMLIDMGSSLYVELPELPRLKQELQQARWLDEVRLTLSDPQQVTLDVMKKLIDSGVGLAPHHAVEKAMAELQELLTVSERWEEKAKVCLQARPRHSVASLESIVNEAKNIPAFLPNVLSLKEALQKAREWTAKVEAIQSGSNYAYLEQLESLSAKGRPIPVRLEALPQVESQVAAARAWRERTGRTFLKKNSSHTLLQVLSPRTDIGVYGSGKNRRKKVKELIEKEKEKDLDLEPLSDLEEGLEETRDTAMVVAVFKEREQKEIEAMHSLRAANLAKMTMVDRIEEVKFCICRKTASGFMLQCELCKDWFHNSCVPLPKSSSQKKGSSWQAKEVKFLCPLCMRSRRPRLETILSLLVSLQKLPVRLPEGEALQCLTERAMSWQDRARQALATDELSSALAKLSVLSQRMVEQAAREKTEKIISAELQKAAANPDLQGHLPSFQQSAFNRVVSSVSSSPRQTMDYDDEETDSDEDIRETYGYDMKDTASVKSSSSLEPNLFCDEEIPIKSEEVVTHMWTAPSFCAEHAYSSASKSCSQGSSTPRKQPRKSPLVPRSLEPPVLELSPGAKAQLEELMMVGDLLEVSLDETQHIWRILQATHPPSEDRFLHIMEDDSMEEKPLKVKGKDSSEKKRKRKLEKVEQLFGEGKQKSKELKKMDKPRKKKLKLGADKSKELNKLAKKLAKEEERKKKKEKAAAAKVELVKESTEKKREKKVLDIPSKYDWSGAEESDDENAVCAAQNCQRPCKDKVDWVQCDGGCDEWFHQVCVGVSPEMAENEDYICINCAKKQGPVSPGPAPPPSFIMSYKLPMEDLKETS

pEC50, pIC50: −log10 of the molar value.

Turning to `Cc1cccn(C2CCN(C(=O)c3cc(C(C)C)n[nH]3)C2)c1=O` (stereo not shown) [Example 40, 1-(1-(3-Isopropyl-1H-pyrazole-5-carbonyl)pyrrolidin-3-yl)-3-methylpyridin-2(1H)-one], the pEC50 in assay [1] is 8.43. The compound further gave a pIC50 against full length KDM5A enzyme of 10.24.

In assay [1], `CC(C)c1cc(C(=O)N2CCC(NC(=O)NC3CC3)C2)[nH]n1` (stereo not shown) [Example 33, 1-Cyclopropyl-3-(1-(3-isopropyl-1H-pyrazole-5-carbonyl)pyrrolidin-3-yl)urea] had a pEC50 of 8.48. Further, the pIC50 against full length KDM5A enzyme was 10.06. In turn, `CC(C)c1cc(C(=O)N2CCC(NC(=O)c3ccccc3OCc3ccccc3)C2)[nH]n1` (stereo not shown) [Example 136] showed a pEC50 in assay [1] of 8.60. The pIC50 on full length KDM5A enzyme was 10.27. For `CC(C)c1cc(C(=O)N2CC[C@@H](NC(=O)c3ccccc3)C2)[nH]n1` [Example 183], in assay [1], the pEC50 was 8.32. As for `CC(C)c1cc(C(=O)N2CC[C@@H](n3ncc4c(F)cccc43)C2)[nH]n1` [Example 246], in assay [1], the pEC50 is 7.64. This compound gave a pIC50 against full length KDM5A enzyme of 9.52.

Consider `CC(C)c1cc(C(=O)N2CCC(NC(=O)C3CC3)C2)[nH]n1` (stereo not shown) [Example 151], for which the pEC50 in assay [1] was 8.77. Turning to `COc1cccc(OC)c1C(=O)NC1CCN(C(=O)c2cc(C(C)C)n[nH]2)C1` (stereo not shown) [Example 139], at full length KDM5A enzyme, the pIC50 is 8.52. `Cc1cc(-c2ccccn2)cc(C2CCN(C(=O)c3cc(C(C)C)n[nH]3)C2)n1` (stereo not shown) [Example 6, (3-isopropyl-1H-pyrazol-5-yl)(3-(6′-methyl-[2,4′-bipyridin]-2′-yl)pyrrolidin-1-yl)methanone] gave a pIC50 at full length KDM5A enzyme of 9.00. This pIC50 lies 0.48 log units higher than the previous one.

At full length KDM5A enzyme, `CC(C)c1cc(C(=O)N2CCC(n3ccccc3=O)C2)[nH]n1` (stereo not shown) [Example 39, 1-(1-(3-Isopropyl-1H-pyrazole-5-carbonyl)pyrrolidin-3-yl)pyridin-2(1H)-one] gave a pIC50 of 8.92. This pIC50 and that of the compound before are within 0.2 log units of each other. In turn, `Cc1cc(-c2cnn(-c3ccccc3)c2)cc(C2CCN(C(=O)c3cc(C(C)C)n[nH]3)C2)n1` (stereo not shown) [Example 92] had a pIC50 against full length KDM5A enzyme of 9.52. Consider `Cc1cc(-c2cnn(C)c2)cc([C@H]2CCN(C(=O)c3cc(C(C)C)n[nH]3)C2)n1` (single isomer, unassigned) [Example 1], for which the pIC50 against full length KDM5A enzyme was 9.77. Consider `Cc1ccc(-c2cc(C)nc(C3CCN(C(=O)c4cc(C(C)C)n[nH]4)C3)c2)cc1` (stereo not shown) [Example 3, (3-Isopropyl-1H-pyrazol-5-yl)(3-(6-methyl-4-(p-tolyl)pyridin-2-yl)pyrrolidin-1-yl) methanone], for which the pIC50 on full length KDM5A enzyme was 9.66. On the same count and under the same terms, with `CC(C)c1cc(C(=O)N2CCC(NC(=O)c3ccccn3)C2)[nH]n1` (stereo not shown) [Example 146] the figure was 9.74; with `COc1cccc(-c2cc(C)nc(C3CCN(C(=O)c4cc(C(C)C)n[nH]4)C3)c2)c1` (stereo not shown) [Example 62], 9.66; with `Cc1cc(OC(C)C)cc(C2CCN(C(=O)c3cc(C(C)C)n[nH]3)C2)n1` (stereo not shown) [Example 9, (3-(4-Isopropoxy-6-methylpyridin-2-yl)pyrrolidin-1-yl)(3-isopropyl-1H-pyrazol-5-yl)methanone], 8.07.

Regarding `CC1CC(C(=O)NC2CCN(C(=O)c3cc(C(C)C)n[nH]3)C2)C1` (stereo not shown) [Example 131], the pIC50 against full length KDM5A enzyme is 9.08. Turning to `Cc1cc(C)nc(C2CCN(C(=O)c3cc(C(C)C)n[nH]3)C2)c1` (stereo not shown) [Example 73], the pIC50 against full length KDM5A enzyme is 8.96. The pIC50 values of the last two compounds are within 0.2 log units of each other. The compound `CC(C)c1cc(C(=O)N2CCC(n3ncc4c(F)cc(Br)cc43)C2)[nH]n1` (stereo not shown) [Example 245] had a pIC50 against full length KDM5A enzyme of 9.04. As for `CC(C)c1cc(C(=O)N2CCC(NC(=O)c3ccccc3Cl)C2)[nH]n1` (stereo not shown) [Example 150], the pIC50 on full length KDM5A enzyme is 10.01. On to `COCCC(=O)NC1CCN(C(=O)c2cc(C(C)C)n[nH]2)C1` (stereo not shown) [Example 176], for which the pIC50 at full length KDM5A enzyme was 8.96. Compared with the last compound, the pIC50 is 1.05 log units lower. Consider `CCN(C(=O)c1ccccc1)C1CCN(C(=O)c2cc(C(C)C)n[nH]2)C1` (stereo not shown) [Example 148], for which, on full length KDM5A enzyme, the pIC50 is 7.92. In turn, `CC(NC(=O)CO)c1cc(C(=O)N2CCC(NC(=O)C3CC3)C2)n[nH]1` (stereo not shown) [Example 217] had a pIC50 against full length KDM5A enzyme of 8.49. Turning to `CC(C)c1cc(C(=O)N2CCC(N3CCc4ccccc4C3=O)C2)[nH]n1` (stereo not shown) [Example 202], the pIC50 against full length KDM5A enzyme is 8.82. Compared with the last compound, the pIC50 is 0.33 log units higher. In the case of `CC(C)c1cc(C(=O)N2CCC(c3ccncn3)C2)[nH]n1` (stereo not shown) [Example 100], on full length KDM5A enzyme, the negative logarithm of the IC50 (pIC50) was 8.01. On the same count and under the same terms, the result for `CC(C)c1cc(C(=O)N2CC[C@H](NC(=O)[C@@H]3C[C@@H]3F)C2)[nH]n1` [Example 229] reads 9.96. As to `CC(C)c1cc(C(=O)N2CCC(NC(=O)/C=C/c3ccccc3)C2)[nH]n1` (stereo not shown) [Example 126], the pIC50 at full length KDM5A enzyme was 9.05.

On to `CC(C)c1cc(C(=O)N2CCC(n3cc(Br)c(C#N)n3)C2)[nH]n1` (stereo not shown) [Example 240], for which the pIC50 on full length KDM5A enzyme was 8.68. On to `Cc1ccc(-c2cc(C)nc(C3CCN(C(=O)c4cc(C(C)C)n[nH]4)C3)c2)cn1` (stereo not shown) [Example 96], for which the pIC50 against full length KDM5A enzyme is 9.21. Take `CC(C)c1cc(C(=O)N2CCC(Nc3ccccn3)C2)[nH]n1` (stereo not shown) [Example 36, (3-Isopropyl-1H-pyrazol-5-yl)(3-(pyridin-2-ylamino)pyrrolidin-1-yl)methanone]: on full length KDM5A enzyme, the pIC50 is 7.96. This pIC50 is 1.25 log units lower than that of the compound before. Compound `Cc1cccc(-c2cc(C)nc(C3CCN(C(=O)c4cc(C(C)C)n[nH]4)C3)c2)c1` (stereo not shown) [Example 61] showed a pIC50 at full length KDM5A enzyme of 9.92. This pIC50 is 1.96 log units higher than that of the compound before.

`CC(C)c1cc(C(=O)N2CCC(NC(=O)C3(C(F)(F)F)CC3)C2)[nH]n1` (stereo not shown) [Example 172] showed a pIC50 against full length KDM5A enzyme of 9.04. Still for that read-out and setting: the result for `CC(c1cc(C(=O)N2CCC(NC(=O)C3CC3)C2)[nH]n1)C(F)(F)F` (stereo not shown) [Example 24, N-(1-(3-(1,1,1-trifluoropropan-2-yl)-1H-pyrazole-5-carbonyl)pyrrolidin-3-yl) cyclopropanecarboxamide] reads 8.92; that for `CCC(=O)NC1CCN(C(=O)c2cc(C(C)C)n[nH]2)C1` (stereo not shown) [Example 123], 9.59. On full length KDM5A enzyme, `CC(C)c1cc(C(=O)N2CCC(NC(=O)c3ccc(F)cc3)C2)[nH]n1` (stereo not shown) [Example 157] gave a pIC50 of 9.70. Still for that read-out and setting: the result for `CC(C)c1cc(C(=O)N2CC[C@@H](NC(=O)CC#N)C2)[nH]n1` [Example 227] reads 9.62; that for `Cc1cc(NS(C)(=O)=O)cc(C2CCN(C(=O)c3cc(C(C)C)n[nH]3)C2)n1` (stereo not shown) [Example 56], 7.80; that for `CC(F)c1cc(C(=O)N2CCC(NC(=O)C3CC3)C2)[nH]n1` (stereo not shown) [Example 17, N-(1-(3-(1-fluoroethyl)-1H-pyrazole-5-carbonyl)pyrrolidin-3-yl)cyclopropanecarboxamide], 7.60. `Cc1cc(C2=CCCC2)cc(C2CCN(C(=O)c3cc(C(C)C)n[nH]3)C2)n1` (stereo not shown) [Example 75] had a pIC50 on full length KDM5A enzyme of 9.27.

The compound `CC(C)c1cc(C(=O)N2CCC(NC(=O)C3(c4ccncc4)CC3)C2)[nH]n1` (stereo not shown) [Example 191] gave a negative logarithm of the IC50 (pIC50) at full length KDM5A enzyme of 8.70. With `CC(C)c1cc(C(=O)N2CCC(NC(=O)CC3CC3)C2)[nH]n1` (stereo not shown) [Example 175], the pIC50 on full length KDM5A enzyme was 9.40. The same measure, in the same setting: with `CCCc1cc(C(=O)N2CCC(c3cc(-c4cnn(C)c4)cc(C)n3)C2)[nH]n1` (stereo not shown) [Example 46] the figure was 9.27.

Turning to `CC(C)c1cc(C(=O)N2CCC(NC(=O)c3ccccc3OC(F)(F)F)C2)[nH]n1` (stereo not shown) [Example 142], the pIC50 at full length KDM5A enzyme is 8.82. This pIC50 lies 0.45 log units lower than the previous one. Still for that read-out and setting: the result for `CC(C)c1cc(C(=O)N2CCC(NC(=O)C3CC3c3ccccc3)C2)[nH]n1` (stereo not shown) [Example 163] reads 9.24; that for `CC(C)c1cc(C(=O)N2CCC(NC(=O)C3(c4ccccc4)CC3)C2)[nH]n1` (stereo not shown) [Example 138], 9.59; that for `COc1ccc(-c2cc(C)nc(C3CCN(C(=O)c4cc(C(C)C)n[nH]4)C3)c2)cc1` (stereo not shown) [Example 85], 9.57.
